Legend:
Experiment in all cases: NPY receptor functional assay (cAMP, HEK-CNG cells, ACTOne membrane potential dye)
Format in all cases: cell-based
[1] = molecular target: T1, human Y5 receptor (Homo sapiens, UniProt Q15761); conditions: NPY5R pEC50, HEK-CNG cells; standard NPY; species (human or rat) not given
T1 sequence (Q15761 1-445): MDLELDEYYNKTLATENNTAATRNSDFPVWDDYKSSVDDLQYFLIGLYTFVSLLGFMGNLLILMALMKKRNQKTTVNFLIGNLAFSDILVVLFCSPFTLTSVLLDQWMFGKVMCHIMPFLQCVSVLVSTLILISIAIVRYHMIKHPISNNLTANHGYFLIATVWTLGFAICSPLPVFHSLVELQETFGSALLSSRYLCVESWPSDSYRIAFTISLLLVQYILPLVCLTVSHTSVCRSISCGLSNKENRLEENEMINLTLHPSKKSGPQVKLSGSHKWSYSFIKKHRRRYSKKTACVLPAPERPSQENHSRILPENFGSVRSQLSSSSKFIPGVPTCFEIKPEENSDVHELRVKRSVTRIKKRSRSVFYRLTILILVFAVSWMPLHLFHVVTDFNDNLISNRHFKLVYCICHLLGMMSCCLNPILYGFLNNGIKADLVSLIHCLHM
In short: (§1)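 HEK-CNG cells stably expressing each human receptor; peptides added in triplicate for 50 minutes at room temperature, with agonism read as decreased isoproterenol-induced membrane potential dye signal (final/initial read).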

[2] = molecular target: T2, human Y1 receptor (Homo sapiens, UniProt P25929)
T2 sequence (P25929 1-384): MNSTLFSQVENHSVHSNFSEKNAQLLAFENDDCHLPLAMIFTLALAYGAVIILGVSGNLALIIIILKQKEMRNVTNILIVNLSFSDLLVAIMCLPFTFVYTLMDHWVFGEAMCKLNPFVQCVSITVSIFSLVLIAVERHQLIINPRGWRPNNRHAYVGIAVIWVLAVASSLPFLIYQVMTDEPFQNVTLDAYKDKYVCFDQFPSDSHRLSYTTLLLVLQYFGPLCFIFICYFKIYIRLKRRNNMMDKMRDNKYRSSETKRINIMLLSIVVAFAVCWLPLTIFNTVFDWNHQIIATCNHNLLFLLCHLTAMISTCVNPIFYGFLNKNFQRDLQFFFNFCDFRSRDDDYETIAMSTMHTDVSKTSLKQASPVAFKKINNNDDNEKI
Source text: The NPY family of G-protein coupled receptors include Y1, Y2, Y4, and Y5 in humans and rats. […] Following agonist binding, the receptor-G protein complex activates a downstream intracellular signaling cascade which leads to inhibition of adenylate cyclase and a reduction in intracellular cAMP levels.
HEK-CNG cells stably expressing the human or rat Y1, Y2, Y4 or Y5 receptors (Codex Biosolutions) were used to characterize the functional potency of peptide agonists using the ActOne™ membrane potential dye kit (Codex Biosolutions). In addition to each NPY receptor, each cell line encodes a proprietary exogenous Cyclic Nucleotide-Gated (CNG) channel (Codex Biosolutions). The channel is activated by elevated intracellular levels of cAMP, resulting in ion flux and cell membrane depolarization which can be detected with a calcium sensitive dye or fluorescent membrane potential (MP) dye. Cells were carried in growth media containing 90% DMEM, 10% FBS, 250 mcg/mL G418 and 1 mcg/mL puromycin for no more than 15 passages.
Prior to testing, cells were counted and dispensed at 14,000 cells per well (Y1, Y4 and Y5) or 28,000 cells per well (Y2) into black 384 well Poly-D-Lysine plates at 20 mcL per well. Covered plates were then incubated at room temperature for 30 minutes followed by an overnight incubation at 37° C. in 5% C02. The following day, media was removed and wells were washed once with 40 mcL Dulbecco's phosphate buffered saline. […] Ten microliters of experimental peptide or peptide standard was added in triplicate to wells and incubated for 50 minutes at room temperature in the dark. Following this incubation step, plates were read again as before (final read).
NPY receptor activation, leading to a reduction in intracellular cAMP levels, is detected as a decrease in isoproteranol induced fluorescent signal. Peptide standard and experimental values were initially transformed in excel using the formula: final read/initial read. […] Normalized data was analyzed from triplicate tests and used to estimate the EC50 for each test peptide on each receptor. Data was fit in GraphPad Prism software (v8.2.1) using a 3-parameter logistic curve model: Y=Bottom+(Top−Bottom)/(1+10^((LogEC50−X))). EC50 values were converted to pEC50 values using the formula: pEC50=−Log(EC50).

[3] = molecular target: T3, human Y2 receptor (Homo sapiens, UniProt P49146); conditions: NPY2R pEC50, HEK-CNG cells; standard PYY(3-36); species (human or rat) not given
T3 sequence (P49146 1-381): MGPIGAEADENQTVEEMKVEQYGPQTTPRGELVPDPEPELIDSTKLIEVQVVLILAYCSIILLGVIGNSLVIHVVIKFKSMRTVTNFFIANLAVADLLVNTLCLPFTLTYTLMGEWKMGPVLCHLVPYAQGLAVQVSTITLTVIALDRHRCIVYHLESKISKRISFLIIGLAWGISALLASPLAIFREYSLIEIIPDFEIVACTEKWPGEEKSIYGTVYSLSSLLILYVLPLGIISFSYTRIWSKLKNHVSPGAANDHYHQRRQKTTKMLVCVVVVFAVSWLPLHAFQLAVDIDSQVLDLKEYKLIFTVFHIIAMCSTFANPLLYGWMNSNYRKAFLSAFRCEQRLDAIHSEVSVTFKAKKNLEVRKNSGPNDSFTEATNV
In short: as §1

Row | SMILES | EC50 [1] [nM] | EC50 [2] [nM] | EC50 [3] [nM]
1 | CC(C)C[C@H](NC(=O)[C@H](CC(=O)O)NC(=O)[C@H](CCCCN)NC(=O)[C@H](Cc1ccc(O)cc1)NC(=O)[C@H](Cc1ccc(O)cc1)NC(=O)[C@H](CCCNC(=N)N)NC(=O)[C@H](CC(N)=O)NC(=O)[C@H](Cc1c[nH]c2ccccc12)NC(=O)[C@H](CCC(=O)O)NC(=O)[C@H](CCCCN)NC(=O)[C@@H]1CCCN1C(=O)[C@H](CO)NC(=O)[C@H](C)NC(=O)[C@H](CC(=O)O)NC(=O)[C@H](CCC(=O)O)NC(=O)CNC(=O)[C@@H]1CCCN1C(=O)[C@H](CCCCNC(=O)CC[C@H](NC(=O)CC[C@H](NC(=O)CCCCCCCCCCCCCCCCC(=O)O)C(=O)O)C(=O)O)NC(=O)[C@H](CCC(=O)O)NC(=O)[C@@H]1CCCN1C(=O)[C@H](CCCCN)NC(=O)[C@@H]1CCCN1)C(=O)N[C@@H](CCCNC(=N)N)C(=O)N[C@@H](Cc1c[nH]cn1)C(=O)N[C@@H](Cc1ccc(O)cc1)C(=O)N[C@@H](CC(C)C)C(=O)N[C@@H](CC(N)=O)C(=O)N[C@@H](Cc1c[nH]c2ccccc12)C(=O)N[C@@H](CC(C)C)C(=O)N[C@H](C(=O)N[C@@H](CCCNC(=N)N)C(=O)N[C@@H](CCC(N)=O)C(=O)N[C@@H](CCCNC(=N)N)C(=O)N[C@@H](Cc1ccccc1)C(N)=O)[C@@H](C)O [Compound A38] | 3.98 | 2.51 | –
2 | CC(C)C[C@H](NC(=O)[C@H](Cc1ccc(O)cc1)NC(=O)[C@H](Cc1c[nH]cn1)NC(=O)[C@H](CCCNC(=N)N)NC(=O)[C@H](CC(C)C)NC(=O)[C@H](CC(=O)O)NC(=O)[C@@H](CCCCNC(=O)CC[C@H](NC(=O)COCCOCCNC(=O)COCCOCCNC(=O)CC[C@H](NC(=O)CCCCCCCCCCCCCCCCCCC(=O)O)C(=O)O)C(=O)O)NC(=O)[C@H](Cc1ccc(O)cc1)NC(=O)[C@H](Cc1ccc(O)cc1)NC(=O)[C@H](CCCNC(=N)N)NC(=O)[C@H](CC(N)=O)NC(=O)[C@H](Cc1c[nH]c2ccccc12)NC(=O)[C@H](CCC(=O)O)NC(=O)[C@H](CCC(=O)O)NC(=O)[C@@H]1CCCN1C(=O)[C@H](CO)NC(=O)[C@H](C)NC(=O)[C@H](CC(=O)O)NC(=O)[C@H](CCCCN)NC(=O)CNC(=O)[C@@H]1CCCN1C(=O)[C@H](C)NC(=O)[C@H](CCC(=O)O)NC(=O)[C@@H]1CCCN1C(=O)[C@H](CCCCN)NC(=O)[C@@H]1CCCN1)C(=O)N[C@@H](CC(N)=O)C(=O)N[C@@H](Cc1c[nH]c2ccccc12)C(=O)N[C@@H](CC(C)C)C(=O)N[C@H](C(=O)N[C@@H](CCCNC(=N)N)C(=O)N[C@@H](CCC(N)=O)C(=O)N[C@@H](CCCNC(=N)N)C(=O)N[C@@H](Cc1ccccc1)C(N)=O)[C@@H](C)O [Compound A65] | 2.51 | 10 | 0.0631
3 | CC(C)C[C@H](NC(=O)[C@H](CC(=O)O)NC(=O)[C@H](CCCCN)NC(=O)[C@H](Cc1ccc(O)cc1)NC(=O)[C@H](Cc1ccc(O)cc1)NC(=O)[C@H](CCCNC(=N)N)NC(=O)[C@H](CC(N)=O)NC(=O)[C@H](Cc1c[nH]c2ccccc12)NC(=O)[C@H](CCC(=O)O)NC(=O)[C@H](CCCCN)NC(=O)[C@@H]1CCCN1C(=O)[C@H](CO)NC(=O)[C@H](C)NC(=O)[C@H](CC(=O)O)NC(=O)[C@H](CCC(=O)O)NC(=O)CNC(=O)[C@@H]1CCCN1C(=O)[C@H](CCCCNC(=O)CC[C@H](NC(=O)CC[C@H](NC(=O)CCCCCCCCCCCCCCCCCCC(=O)O)C(=O)O)C(=O)O)NC(=O)[C@H](CCC(=O)O)NC(=O)[C@@H]1CCCN1C(=O)[C@H](CCCCN)NC(=O)[C@@H]1CCCN1)C(=O)N[C@@H](CCCNC(=N)N)C(=O)N[C@@H](Cc1c[nH]cn1)C(=O)N[C@@H](Cc1ccc(O)cc1)C(=O)N[C@@H](CC(C)C)C(=O)N[C@@H](CC(N)=O)C(=O)N[C@@H](Cc1c[nH]c2ccccc12)C(=O)N[C@@H](CC(C)C)C(=O)N[C@H](C(=O)N[C@@H](CCCNC(=N)N)C(=O)N[C@@H](CCC(N)=O)C(=O)N[C@@H](CCCNC(=N)N)C(=O)N[C@@H](Cc1ccccc1)C(N)=O)[C@@H](C)O [Compound A72] | 1.58 | 1 | 0.0158
4 | CC(C)C[C@H](NC(=O)[C@H](CC(=O)O)NC(=O)[C@H](CCCCN)NC(=O)[C@H](Cc1ccc(O)cc1)NC(=O)[C@H](Cc1ccc(O)cc1)NC(=O)[C@H](CCCNC(=N)N)NC(=O)[C@H](CC(N)=O)NC(=O)[C@H](Cc1c[nH]c2ccccc12)NC(=O)[C@H](CCC(=O)O)NC(=O)[C@H](CCC(=O)O)NC(=O)[C@@H]1CCCN1C(=O)[C@H](CO)NC(=O)[C@H](C)NC(=O)[C@H](CC(=O)O)NC(=O)[C@H](CCCCNC(=O)CC[C@H](NC(=O)CC[C@H](NC(=O)CCCCCCCCCCCCCCCCCCC(=O)O)C(=O)O)C(=O)O)NC(=O)CNC(=O)[C@@H]1CCCN1C(=O)[C@H](CCCCN)NC(=O)[C@H](CCC(=O)O)NC(=O)[C@@H]1CCCN1C(=O)[C@H](CCCCN)NC(=O)[C@@H]1CCCN1)C(=O)N[C@@H](CCCNC(=N)N)C(=O)N[C@@H](Cc1c[nH]cn1)C(=O)N[C@@H](Cc1ccc(O)cc1)C(=O)N[C@@H](CC(C)C)C(=O)N[C@@H](CC(N)=O)C(=O)N[C@@H](Cc1c[nH]c2ccccc12)C(=O)N[C@@H](CC(C)C)C(=O)N[C@H](C(=O)N[C@@H](CCCNC(=N)N)C(=O)N[C@@H](CCC(N)=O)C(=O)N[C@@H](CCCNC(=N)N)C(=O)N[C@@H](Cc1ccccc1)C(N)=O)[C@@H](C)O [Compound A74] | 1 | 0.501 | 0.0501
